Test results from patent US12077555B2, “STAT degraders and uses thereof” (Kymera Therapeutics, Inc., priority 2019, dated 2024).

What was measured:
ternary complex = experiment: AlphaLISA assay of ternary complex formation (FIG. 2A); type: binding
[1] = system: STAT3-degrader-E3 ligase ternary complex; experiment: AlphaLISA assays, ternary complex formation and STAT3 ubiquitination; type: biochemical; conditions: FIG. 2
STAT3 [2] = molecular target: T1, STAT3 (Homo sapiens, UniProt P40763); experiment: STAT3 ubiquitination in A549 lysates (FIG. 2B); type: cell-based; parameters: expressed in transfected cells; host or cells: A549
E3 ligase = experiment: Fluorescence polarization assay, E3 ligase binding; conditions: FIG. 1
STAT3 [3] = molecular target: T1, STAT3; experiment: Quantitation of STAT3 degradation in A549 cells by Western blot; type: cell-based; parameters: expressed in transfected cells; host or cells: A549; conditions: read-out: A549 DC50, 24 hours, tested up to 30 μM or 10 μM
Summary of the method: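 A549 cells treated 24 h at 37° C with compound at 30, 10, 3, 1, 0.3 μM or DMSO; RIPA lysates analysed by SDS-PAGE/Western blot for total STAT3, β-actin as loading control, LI-COR fluorescence read-out. DC50 derived by sigmoidal fit of dose-dependent degradation.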

STAT3 [4] = molecular target: T1, STAT3; experiment: Fluorescence polarization assay, STAT3 binding; conditions: FIG. 1
[5] = molecular target: T2, mutant STAT3 (STAT D661Y) (Homo sapiens, UniProt P40763, D661Y); experiment: degradation of mutant STAT3 in HDLM-2 cell lines, dose response; type: cell-based; conditions: dose response curve
T2 construct: endogenous in cells; host or cells: HDLM-2

A3/KAW cells = experiment: CellTiter-Glo cell viability, A3/KAW; type: cell-based; conditions: DLBCL
mutant STAT3 = mutant STAT3 (Homo sapiens, UniProt P40763, D661Y); experiment: STAT3 MSD assay, mutant STAT3 cell lines; type: cell-based; conditions: read-out: DC50, mutant STAT3; mutant STAT3 heme cell lines, FIG. 9
Protocol: 100 nl of compounds were added into the intermediate plate with Echo (Labcyte 550) from source plate containing a 3-fold serial dilution from top concentration of 1 mM. Cells were seeded into 96-well plates (4×10^4 cells/well/100 ul media), mixed well, and incubated for 24 hours. The media was aspirated from the cultures and 60 μL pre-chilled PIPA lysis buffer (Boston BioProducts BP-115D) with protease/phosphatase inhibitor (Roche 05892791001/Roche 04906837001) was added into the well to lyze the cells for 20 minutes at 4° C. The MSD plate (L15XA) was coated with 2 ug/ml capture antibody (ab119352) in PBS and incubated at 4° C. overnight. The next day, the plate was washed three times with TBST (CST #99975), 150 μL/well. MSD plates were blocked with 150 μL blocking buffer per well and shaken for 1 hr at RT and 600 rpm. The blocking buffer was 3% Blocker A (MSD, R93BA-4) in TBST. The MSD plate was washed three times with 150 μL/well of TBST and 70 μL cell lysate was added into the well and shaken for 1 hour at RT and 600 rpm. […] The MSD plate washed three times with 150 μL/well of TBST and added 150 μL/well of 2×MSD reading buffer diluted from 4× (MSD, R92TC-2) with water. Lastly the MSD instrument was read.

SU-DHL-1 tumor cells = experiment: Xenograph tumor study, SU-DHL-1; type: in vivo, NOD SCID mice; conditions: SUDHL-1 xenograph, IV, 2.5-30 mg/kg, 2 days on/5 days off
Protocol: Animals: 50 6-8 week old female NOD SCID mice weighing 18 to 20 grams. 25 mice were used in each study.
Method for Tumor Inoculation: Each mouse was inoculated subcutaneously with SU-DHL-1 tumor cells (1×107+Matrigel) or SUP-M2 tumor cells (5×106+Matrigel) in 0.1 ml of RPMI1640 medium supplemented with 10% FBS, 100 U/ml penicillin and […] streptomycin for tumor development. Mice were then assigned to groups such that the mean tumor volume was the same for each treatment group and time point. […] Vehicle was 25% HP-β-CD in water adjusted to pH 7.4.
Measurement Parameters: Study animals were monitored not only for tumor growth but also behavior such as mobility, food and water consumption (by cage side checking only), body weight (BW), eye/hair matting and any other abnormal effect. Any mortality and/or abnormal clinical signs was recorded. Sponsor was notified immediately if abnormal clinical signs, or if tolerability issues were observed. Body weights of all animals were measured and recorded twice per week. The measurement of tumor size was conducted twice weekly with a caliper and recorded. The tumor volume (mm3) was estimated using the formula: TV=a×b2/2, where “a” and “b” are long and short diameters of a tumor, respectively.

STAT3 [6] = molecular target: T1, STAT3; experiment: STAT3 HiBiT degradation assay in transfected A549 cells; type: cell-based; parameters: expressed in transfected cells; host or cells: A549; conditions: A549, 24 h; read-out: STAT3 HiBiT A549 degradation 24 h: Average external-Abs DC50
Summary of the method: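 Degradation read as HiBiT-tagged STAT3 luminescence (Nano-Glo lytic reagent, 10 min, room temperature) following 24 h compound treatment of transfected A549 cells at 3-fold, 10 points. Percent remaining signal computed against controls and fitted with a four-parameter logistic; DC50 reported as letter bins (A <0.01 to D >1.0 µM).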

T1 sequence (P40763 whole entry): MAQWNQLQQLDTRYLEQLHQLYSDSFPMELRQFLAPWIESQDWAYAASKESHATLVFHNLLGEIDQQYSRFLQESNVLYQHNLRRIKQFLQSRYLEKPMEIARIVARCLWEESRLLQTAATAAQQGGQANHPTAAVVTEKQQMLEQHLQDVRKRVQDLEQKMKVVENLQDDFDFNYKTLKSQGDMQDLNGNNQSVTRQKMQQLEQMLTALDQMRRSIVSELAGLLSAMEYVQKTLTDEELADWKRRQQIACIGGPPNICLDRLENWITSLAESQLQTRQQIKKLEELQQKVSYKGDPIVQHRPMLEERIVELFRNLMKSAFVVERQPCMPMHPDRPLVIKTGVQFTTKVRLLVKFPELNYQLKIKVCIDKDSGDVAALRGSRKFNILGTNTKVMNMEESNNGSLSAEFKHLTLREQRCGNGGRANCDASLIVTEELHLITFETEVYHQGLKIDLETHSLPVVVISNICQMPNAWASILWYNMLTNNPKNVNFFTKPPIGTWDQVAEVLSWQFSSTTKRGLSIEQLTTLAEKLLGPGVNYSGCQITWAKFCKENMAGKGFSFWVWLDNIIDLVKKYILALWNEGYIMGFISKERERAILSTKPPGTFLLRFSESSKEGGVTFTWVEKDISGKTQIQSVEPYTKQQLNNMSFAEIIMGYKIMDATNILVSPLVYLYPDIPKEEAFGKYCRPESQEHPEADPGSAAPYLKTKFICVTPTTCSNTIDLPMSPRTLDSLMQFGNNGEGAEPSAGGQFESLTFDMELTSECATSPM
T2 sequence (P40763 whole entry D661Y): as the sequence (P40763 whole entry) above, with D661Y counted along it
Sequence of mutant STAT3 (P40763 2-770 D661Y): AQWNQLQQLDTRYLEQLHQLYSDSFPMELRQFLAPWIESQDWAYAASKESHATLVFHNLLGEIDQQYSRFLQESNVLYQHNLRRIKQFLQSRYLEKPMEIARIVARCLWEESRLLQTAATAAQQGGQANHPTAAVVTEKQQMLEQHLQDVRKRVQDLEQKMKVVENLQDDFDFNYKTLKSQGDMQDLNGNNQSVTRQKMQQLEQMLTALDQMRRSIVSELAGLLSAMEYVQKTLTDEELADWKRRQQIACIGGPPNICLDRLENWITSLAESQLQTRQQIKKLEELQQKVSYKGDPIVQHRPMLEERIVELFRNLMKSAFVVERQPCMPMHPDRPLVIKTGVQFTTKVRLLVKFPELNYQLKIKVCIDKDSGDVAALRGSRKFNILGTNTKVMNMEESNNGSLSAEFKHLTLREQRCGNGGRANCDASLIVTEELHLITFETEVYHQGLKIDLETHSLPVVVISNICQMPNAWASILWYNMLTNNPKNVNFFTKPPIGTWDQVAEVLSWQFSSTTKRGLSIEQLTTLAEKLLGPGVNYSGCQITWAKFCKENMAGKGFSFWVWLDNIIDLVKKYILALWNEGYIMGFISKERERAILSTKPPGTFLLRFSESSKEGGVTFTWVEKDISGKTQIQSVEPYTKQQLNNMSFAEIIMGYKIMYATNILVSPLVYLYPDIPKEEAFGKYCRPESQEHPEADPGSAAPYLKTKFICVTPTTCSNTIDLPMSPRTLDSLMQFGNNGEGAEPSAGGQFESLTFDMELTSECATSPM

| SMILES | ternary complex formation (ternary complex) | STAT3 ubiquitination [1] | formation of the STAT3-degrader-E3 ligase ternary complex [1] | STAT3 ubiquitination (STAT3 [2]) | binding to E3 ligase (E3 ligase) | DC50 (STAT3 [3]) [µM] | binding to STAT3 (STAT3 [4]) | degradation of mutant STAT3 (STAT D661Y) [5] | IC50 (A3/KAW cells; 96 h, Day 4, read-out: CTG, IC50 μM, Day 4) [µM] | CTG (% Max inh), Day 4 (A3/KAW cells) | DC50 (mutant STAT3) [µM] | tumor volume, 5 days (SU-DHL-1 tumor cells; 5 days) | tumor volume, 10 days (SU-DHL-1 tumor cells; 10 days) | tumor volume, 15 days (SU-DHL-1 tumor cells; 15 days) | tumor volume, 20 days (SU-DHL-1 tumor cells; 20 days) | DC50 (STAT3 [6]) [µM] |
| --- | --- | --- | --- | --- | --- | --- | --- | --- | --- | --- | --- | --- | --- | --- | --- | --- |
| C/C(=C\C(=O)N[C@H]1CCc2cccc3c2N(C1=O)[C@H](C(=O)N[C@@H](CCC(N)=O)[C@@H](C)OCc1ccc(CCCCC(=O)N[C@H](C(=O)N2C[C@H](O)C[C@H]2C(=O)NCc2ccc(-c4scnc4C)cc2)C(C)(C)C)cc1)C3)c1ccc(C(F)(F)P(=O)(O)O)cc1 [Compound I-1, [4-[(1E)-1-[[(2S,11S)-2-[[(3S,4R)-1-carbamoyl-4-[[4-(4-[[(2S)-1-[(2S,4R)-4-hydroxy-2-([[4-(4-methyl-1,3-thiazol-5-yl)phenyl]methyl]carbamoyl)pyrrolidin-1-yl]-3,3-dimethyl-1-oxobutan-2-yl]carbamoyl]butyl)phenyl]methoxy]pentan-3-yl]carbamoyl]-12-oxo-1-azatricyclo[6.4.1.0^[4,13]]trideca-4(13),5,7-trien-11-yl]carbamoyl]prop-1-en-2-yl]phenyl]difluoromethylphosphonic acid] | efficient ternary complex formation | promotes | promotes the formation of the STAT3-degrader-E3 ligase ternary complex | STAT3 ubiquitination | binds | < 30 | binds | – | – | – | – | – | – | – | – | – |
| NC(=O)CC[C@H](NC(=O)[C@@H]1CC[C@@H]2CCN(C(=O)CCCCCC#Cc3cccc4c3CN(C3CCC(=O)NC3=O)C4=O)C[C@H](NC(=O)c3cc4cc(C(=O)P(=O)(O)O)ccc4[nH]3)C(=O)N21)C(=O)NC(c1ccccc1)c1ccccc1 (stereo partly drawn) [Compound I-111, diammonium 2-[[(5S,8S,10aR)-8-[[(1S)-3-carbamoyl-1-(diphenylmethylcarbamoyl)propyl]carbamoyl]-3-[8-[2-(2,6-dioxopiperidin-3-yl)-1-oxo-3H-isoindol-4-yl]oct-7-ynoyl]-6-oxo-octahydropyrrolo[1,2-a][1,5]diazocin-5-yl]carbamoyl]-1H-indole-5-carbonylphosphonate] | – | – | – | – | – | < 30 | – | degrading mutant STAT3 | 1.9 | (50-55) % | 0.068 | – | – | – | – | – |
| CC(=O)N1CC[C@H]2CC[C@@H](C(=O)N[C@@H](CCC(N)=O)COc3cc(C)cc(CCCCCC(=O)N[C@H](C(=O)N4C[C@H](O)C[C@H]4C(=O)N[C@@H](C)c4ccc(-c5scnc5C)cc4)C(C)(C)C)c3F)N2C(=O)[C@@H](NC(=O)c2cc3cc(C(=O)P(=O)(O)O)ccc3[nH]2)C1 [Compound I-262, 2-[[(5S,8S,10aR)-3-acetyl-8-[[(2S)-4-carbamoyl-1-[2-fluoro-3-(5-[[(2S)-1-[(2S,4R)-4-hydroxy-2-[[(1S)-1-[4-(4-methyl-1,3-thiazol-5-yl)phenyl]ethyl]carbamoyl]pyrrolidin-1-yl]-3,3-dimethyl-1-oxobutan-2-yl]carbamoyl]pentyl)-5-methylphenoxy]butan-2-yl]carbamoyl]-6-oxo-octahydropyrrolo[1,2-a][1,5]diazocin-5-yl]carbamoyl]-1H-indole-5-carbonylphosphonic acid] | – | – | – | – | – | – | – | – | – | – | – | A (A<500 mm^3) | A (A<500 mm^3) | A (A<500 mm^3) | A (A<500 mm^3) | < 0.01 |
